Source: US12122761B2, “2-azaspiro[3.4]octane derivatives as M4 agonists” (NOVARTIS AG, priority 2019, dated 2024)

Experiments:
[1] = molecular target: T1, human cloned CHRM4 receptor (M4_CHO cells) (Homo sapiens, UniProt P08173); test: CHRM4 Ca++ Flux Assay (agonist mode, FDSS 7000EX); format: cell-based; conditions: for Emax: Percent Activity, read-out: M4 FDSS PA; for EC50: geometric mean if tested more than once, read-out: M4 FDSS EC50
T1 construct: expressed in transfected cells; host or cells: CHO-K1
T1 sequence (P08173 1-479): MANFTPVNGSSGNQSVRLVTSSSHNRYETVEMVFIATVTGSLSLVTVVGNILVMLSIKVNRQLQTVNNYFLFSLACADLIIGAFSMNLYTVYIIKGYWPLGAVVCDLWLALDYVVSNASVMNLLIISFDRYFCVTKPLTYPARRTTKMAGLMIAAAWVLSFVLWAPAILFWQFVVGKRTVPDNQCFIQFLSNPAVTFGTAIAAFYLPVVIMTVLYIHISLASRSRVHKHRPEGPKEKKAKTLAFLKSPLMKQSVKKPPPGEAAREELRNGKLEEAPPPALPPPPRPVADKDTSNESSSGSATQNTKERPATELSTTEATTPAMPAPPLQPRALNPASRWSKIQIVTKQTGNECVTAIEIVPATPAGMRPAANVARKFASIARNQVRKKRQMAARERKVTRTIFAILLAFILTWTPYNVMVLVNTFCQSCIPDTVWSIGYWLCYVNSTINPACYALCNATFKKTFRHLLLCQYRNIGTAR
Procedure, shortened: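 Agonist-mode response was expressed as percent of the Carbachol EC100 and fitted with four-parameter nonlinear regression over an 11-point triplicate dose series. Intracellular Ca++ was tracked for 3 min by fluorescent dye in CHO-K1 cells stably expressing human CHRM4. Cells were preincubated 60 min with 20 μM ATP in buffer containing 2.5 mM probenecid.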

[2] = molecular target: T2, human cloned CHRM5 receptor (M5_CHO) (Homo sapiens, UniProt P08912); test: CHRM5 Ca++ Flux Assay (agonist mode, FDSS 7000EX); format: cell-based; conditions: for Emax: Percent Activity measured to EC100 of Carbachol, read-out: M5 FDSS PA; for EC50: agonist mode, geometric mean if tested more than once, read-out: M5 FDSS EC50
T2 construct: expressed in transfected cells; host or cells: CHO (M5_CHO)
T2 sequence (P08912 1-532): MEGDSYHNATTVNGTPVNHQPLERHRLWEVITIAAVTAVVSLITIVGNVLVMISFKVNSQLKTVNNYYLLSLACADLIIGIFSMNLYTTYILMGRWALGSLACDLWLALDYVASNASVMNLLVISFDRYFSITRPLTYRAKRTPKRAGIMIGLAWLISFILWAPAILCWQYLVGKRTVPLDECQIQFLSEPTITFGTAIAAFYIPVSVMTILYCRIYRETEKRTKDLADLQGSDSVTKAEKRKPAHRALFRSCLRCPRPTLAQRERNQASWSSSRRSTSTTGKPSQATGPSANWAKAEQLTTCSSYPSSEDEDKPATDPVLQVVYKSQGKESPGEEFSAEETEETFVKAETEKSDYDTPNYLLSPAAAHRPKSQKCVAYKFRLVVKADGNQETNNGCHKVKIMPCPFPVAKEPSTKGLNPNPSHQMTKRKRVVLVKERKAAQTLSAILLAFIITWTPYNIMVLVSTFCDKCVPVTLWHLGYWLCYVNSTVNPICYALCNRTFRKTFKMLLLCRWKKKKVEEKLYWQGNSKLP
Procedure, shortened: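 CHO-K1 cells stably expressing human M3 or M5 receptor were dye-loaded for at least 1 h in HBSS with 20 mM HEPES and 2.5 mM probenecid, then given 11-point compound doses in triplicate.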

SMILES | Emax [1] [%] | EC50 [1] [nM] | Emax [2] [%] | EC50 [2] [µM]
c1ccc(C2CCN([C@@H]3CCC4(C3)CN(c3nnco3)C4)CC2)c(OC2CCOCC2)c1 [Example 2F, (R)-2-(6-(4-(2-((tetrahydro-2H-pyran-4-yl)oxy)phenyl)piperidin-1-yl)-2-azaspiro[3.4]octan-2-yl)-1,3,4-oxadiazole] | 88 | 7 | 0 | > 25
c1ccc(C2CCN([C@@H]3CCC4(C3)CN(c3nnco3)C4)CC2)c(OCC2CCOCC2)c1 [Example 2G, (R)-2-(6-(4-(2-((tetrahydro-2H-pyran-4-yl)methoxy)phenyl)piperidin-1-yl)-2-azaspiro[3.4]octan-2-yl)-1,3,4-oxadiazole] | 70 | 7 | 0 | > 25
c1ccc(C2CCN([C@@H]3CCC4(C3)CN(c3nnco3)C4)CC2)c(C2CCOCC2)c1 [Example 2H, (R)-2-(6-(4-(2-(tetrahydro-2H-pyran-4-yl)phenyl)piperidin-1-yl)-2-azaspiro[3.4]octan-2-yl)-1,3,4-oxadiazole] | 83 | 3 | 0 | > 25
Fc1ccc(C2CCOCC2)c(C2CCN([C@@H]3CCC4(C3)CN(c3nnco3)C4)CC2)c1 [Example 2I, (R)-2-(6-(4-(5-fluoro-2-(tetrahydro-2H-pyran-4-yl)phenyl)piperidin-1-yl)-2-azaspiro[3.4]octan-2-yl)-1,3,4-oxadiazole] | 96 | 1 | 0 | > 25
c1ccc(C2CCOC2)c(C2CCN([C@@H]3CCC4(C3)CN(c3nnco3)C4)CC2)c1 (stereo partly drawn) [Example 2K, 2-((6R)-6-(4-(2-(tetrahydrofuran-3-yl)phenyl)piperidin-1-yl)-2-azaspiro[3.4]octan-2-yl)-1,3,4-oxadiazole] | 93 | 3 | 0 | > 25
c1ccc(C2CCN([C@@H]3CCC4(C3)CN(c3nnco3)C4)CC2)c(CC2CCOCC2)c1 [Example 2L, (R)-2-(6-(4-(2-((tetrahydro-2H-pyran-4-yl)methyl)phenyl)piperidin-1-yl)-2-azaspiro[3.4]octan-2-yl)-1,3,4-oxadiazole] | 77 | 11 | 0 | > 25
c1ccc(C2CCN([C@@H]3CCC4(C3)CN(c3nnco3)C4)CC2)c(-c2ncco2)c1 [Example 2M, (R)-2-(6-(4-(2-(oxazol-2-yl)phenyl)piperidin-1-yl)-2-azaspiro[3.4]octan-2-yl)-1,3,4-oxadiazole] | 82 | 6 | 0 | > 25
c1ccc(C2CCN([C@@H]3CCC4(C3)CN(c3nncs3)C4)CC2)c(OC2COC2)c1 [Example 3A, (R)-2-(6-(4-(2-(oxetan-3-yloxy)phenyl)piperidin-1-yl)-2-azaspiro[3.4]octan-2-yl)-1,3,4-thiadiazole] | 88 | < 0.4 | 0 | > 25
c1ccc(C2CCN([C@@H]3CCC4(C3)CN(c3nncs3)C4)CC2)c(OC[C@H]2COCCO2)c1 [Example 3B, 2-((R)-6-(4-(2-(((R)-1,4-dioxan-2-yl)methoxy)phenyl)piperidin-1-yl)-2-azaspiro[3.4]octan-2-yl)-1,3,4-thiadiazole] | 70 | 1 | 0 | > 25
c1ccc(C2CCN([C@@H]3CCC4(C3)CN(c3nncs3)C4)CC2)c(OC[C@@H]2COCCO2)c1 [Example 3C, 2-((R)-6-(4-(2-(((S)-1,4-dioxan-2-yl)methoxy)phenyl)piperidin-1-yl)-2-azaspiro[3.4]octan-2-yl)-1,3,4-thiadiazole] | 66 | 2 | 0 | > 25
COc1ccccc1C1CCN([C@@H]2CCC3(C2)CN(c2nncs2)C3)CC1 [Example 3D, (R)-2-(6-(4-(2-methoxyphenyl)piperidin-1-yl)-2-azaspiro[3.4]octan-2-yl)-1,3,4-thiadiazole] | 71 | 2 | 0 | > 25
Fc1cccc(C2CCN([C@@H]3CCC4(C3)CN(c3nncs3)C4)CC2)c1OC1COC1 [Example 3E, (R)-2-(6-(4-(3-fluoro-2-(oxetan-3-yloxy)phenyl)piperidin-1-yl)-2-azaspiro[3.4]octan-2-yl)-1,3,4-thiadiazole] | 87 | 3 | 0 | > 25
COCCOc1ccccc1C1CCN([C@@H]2CCC3(C2)CN(c2nncs2)C3)CC1 [Example 3F, (R)-2-(6-(4-(2-(2-methoxyethoxy)phenyl)piperidin-1-yl)-2-azaspiro[3.4]octan-2-yl)-1,3,4-thiadiazole] | 60 | 6 | 0 | > 25
CC(C)(O)COc1ccccc1C1CCN([C@@H]2CCC3(C2)CN(c2nncs2)C3)CC1 [Example 3G, (R)-1-(2-(1-(2-(1,3,4-thiadiazol-2-yl)-2-azaspiro[3.4]octan-6-yl)piperidin-4-yl)phenoxy)-2-methylpropan-2-ol] | 57 | 7 | 0 | > 25
CC(C)(O)CCOc1ccccc1C1CCN([C@@H]2CCC3(C2)CN(c2nncs2)C3)CC1 [Example 3H, (R)-4-(2-(1-(2-(1,3,4-thiadiazol-2-yl)-2-azaspiro[3.4]octan-6-yl)piperidin-4-yl)phenoxy)-2-methylbutan-2-ol] | 48 | 8 | 0 | > 25
COc1ccccc1C1CCN([C@@H]2CCC3(C2)CN(c2ccns2)C3)CC1 [Example 3I, (R)-5-(6-(4-(2-methoxyphenyl)piperidin-1-yl)-2-azaspiro[3.4]octan-2-yl)isothiazole] | 70 | 1 | 0 | > 25
COCCOc1ccccc1C1CCN([C@@H]2CCC3(C2)CN(c2ncns2)C3)CC1 [Example 3J, (R)-5-(6-(4-(2-(2-methoxyethoxy)phenyl)piperidin-1-yl)-2-azaspiro[3.4]octan-2-yl)-1,2,4-thiadiazole] | 57 | 4 | 0 | > 25
CC(C)(O)COc1ccccc1C1CCN([C@@H]2CCC3(C2)CN(c2ncns2)C3)CC1 [Example 3K, (R)-1-(2-(1-(2-(1,2,4-thiadiazol-5-yl)-2-azaspiro[3.4]octan-6-yl)piperidin-4-yl)phenoxy)-2-methylpropan-2-ol] | 68 | 5 | 0 | > 25
CC(C)(O)CCOc1ccccc1C1CCN([C@@H]2CCC3(C2)CN(c2ncns2)C3)CC1 [Example 3L, (R)-4-(2-(1-(2-(1,2,4-thiadiazol-5-yl)-2-azaspiro[3.4]octan-6-yl)piperidin-4-yl)phenoxy)-2-methylbutan-2-ol] | 34 | 19 | 0 | > 25
COc1ccccc1C1CCN([C@@H]2CCC3(C2)CN(c2nc(C)ns2)C3)CC1 [Example 3M, (R)-5-(6-(4-(2-methoxyphenyl)piperidin-1-yl)-2-azaspiro[3.4]octan-2-yl)-3-methyl-1,2,4-thiadiazole] | 30 | 18 | 0 | > 25
